ChEMBL document CHEMBL1155003, “Halicyclamine A, a marine spongean alkaloid as a lead for anti-tuberculosis agent” (2008)
Values after ≈ are worked out from the molar mass of the structure shown. Active and inactive are the calls of the source. The rule behind the calls is not given here.

What was measured:
[1] = test system: Mycobacterium tuberculosis; assay: Antitubercular activity against Mycobacterium bovis BCG under aerobic condition after 7 days by MTT method; format: functional; conditions: variant bovis BCG, 168 h
[2] = test system: Mycobacterium tuberculosis; assay: Antitubercular activity against Mycobacterium bovis BCG under hypoxic condition after 14 days by MTT method; format: functional; conditions: variant bovis BCG, 336 h
[3] = test system: Mycobacterium tuberculosis; assay: Bactericidal activity against Mycobacterium bovis BCG assessed as decrease in CFU at 10 ug/ml after 4 weeks; format: functional, organism-based; conditions: variant bovis BCG

Compound | MIC [1] [mg/L] | MIC [2] [mg/L] | Activity [3]
C1=C2CCCC/C=C\C=C\CCN3CC[C@@H]4[C@H](CCCCCC/C=C\C=C/CCN(C2)C[C@H]14)C3 [HALICYCLAMINE A] | 1 (≈ 2.16 µM) | 1 (≈ 2.16 µM) | Active
NNC(=O)c1ccncc1 [ISONIAZID] | 0.03 (≈ 0.219 µM) | > 100 | –
